Data set [1] in a line: Water-solubility of human C-peptide. In kind it is physicochemical. As to conditions: observed when preparing formulations; phase-separation methods gave high losses of active substance.
The conditions of data set [2]: cited from earlier work.

Results on 1 compound are retold here after patent publication US20040053817A1, “Delayed-release pharmaceutical formulations” (priority 2000, published 2004).

Turning to `CC(C)C[C@H](NC(=O)[C@H](C)NC(=O)[C@H](CC(C)C)NC(=O)[C@@H]1CCCN1C(=O)[C@H](CCC(N)=O)NC(=O)[C@H](CC(C)C)NC(=O)[C@H](CO)NC(=O)CNC(=O)[C@H](C)NC(=O)CNC(=O)[C@@H]1CCCN1C(=O)CNC(=O)CNC(=O)CNC(=O)[C@H](CC(C)C)NC(=O)[C@H](CCC(=O)O)NC(=O)[C@@H](NC(=O)[C@H](CCC(N)=O)NC(=O)CNC(=O)[C@@H](NC(=O)[C@H](CCC(N)=O)NC(=O)[C@H](CC(C)C)NC(=O)[C@H](CC(=O)O)NC(=O)[C@H](CCC(=O)O)NC(=O)[C@H](C)NC(=O)[C@@H](N)CCC(=O)O)C(C)C)C(C)C)C(=O)N[C@@H](CCC(=O)O)C(=O)NCC(=O)N[C@@H](CO)C(=O)N[C@@H](CC(C)C)C(=O)N[C@@H](CCC(N)=O)C(=O)O` [C-peptide], the water-solubility result in data set [1] was “strong water-solubility”. Besides, in data set [2], the “half-life of plasma in humans” value was “about 40 minutes”.
